Peptide text beside a SMILES is read from it. * marks the point of attachment. Dansyl = CN(C)c1cccc2c(S(=O)(=O)*)cccc12
Test system: P100 membrane fraction of Caco-2 cells
Experiment: Dansylated peptide ELISA: relative binding of PAX2 and HAX42 peptides to P100 fractions (ratio to ZElan021)
Conditions: ratio to ZElan021 = 1.00
Protocol: The peptides and proteins were analyzed by a dansylated peptide ELISA method in which 96 well plates were coated overnight at 4° C. with 100 μl/well coating protein (normally 100 μg/ml P100 membrane fraction) in 0.05M carbonate buffer pH9.6. Nonspecific binding was blocked using 200 μl/well, 2% Marvel/PBS for 2 hours at 37° C. prior to incubation with dansylated peptides. The plates were washed three times with PBS/0.05% Tween 20 and after each subsequent incubation step. […] A buffer blank control was included to ensure that background binding to plastic was not due to the antibodies used in the assay system. […] Plates were developed using 75 μl/well Bionostics TMB substrate and incubated for approximately 10 minutes. The developing reaction was stopped using Bionostics Red Stop solution (25 μl/well), and the optical density of the plates was read at 650 nm. […]

With `CC(C)C[C@H](NC(=O)[C@H](CCCNC(=N)N)NC(=O)[C@H](CCCNC(=N)N)NC(=O)[C@H](CC(N)=O)NC(=O)[C@H](Cc1c[nH]cn1)NC(=O)[C@H](CO)NC(=O)[C@H](CO)NC(=O)[C@H](Cc1c[nH]cn1)NC(=O)[C@H](CCCCN)NC(=O)[C@H](C)NC(=O)[C@H](CC(N)=O)NC(=O)[C@@H](NC(=O)[C@@H](N)CCCCNS(=O)(=O)c1cccc2c(N(C)C)cccc12)[C@@H](C)O)C(=O)N[C@@H](CCCNC(=N)N)C(=O)N[C@H](C(=O)N[C@@H](CCCNC(=N)N)C(=O)N[C@@H](CO)C(=O)N[C@@H](CCCNC(=N)N)C(=O)N1CCC[C@H]1C(=O)N[C@@H](CC(N)=O)C(N)=O)[C@@H](C)O` [ZElan032] (H-K(Dansyl)TNAKHSSHNRRLRTRSRPN-NH2) the “Binding value at 50 μg/ml” value (PAX2 peptides, first column) was 0.95.
With `CC(C)C[C@H](NC(=O)[C@H](CCCNC(=N)N)NC(=O)[C@H](CCCNC(=N)N)NC(=O)[C@H](CC(N)=O)NC(=O)[C@H](Cc1c[nH]cn1)NC(=O)[C@H](CO)NC(=O)[C@H](CO)NC(=O)[C@H](Cc1c[nH]cn1)NC(=O)[C@H](CCCCN)NC(=O)[C@H](C)NC(=O)[C@H](CC(N)=O)NC(=O)[C@@H](NC(=O)[C@@H](N)CCCCNS(=O)(=O)c1cccc2c(N(C)C)cccc12)[C@@H](C)O)C(=O)N[C@@H](CCCNC(=N)N)C(=O)N[C@H](C(=O)N[C@@H](CCCNC(=N)N)C(N)=O)[C@@H](C)O` [ZElan033] (H-K(Dansyl)TNAKHSSHNRRLRTR-NH2) the “Binding value at 20 μg/ml” value (PAX2 peptides, first column) was 0.35, the “Binding value at 50 μg/ml” value (PAX2 peptides, first column) was 0.80 and the “Binding value at 50 μg/ml” value (PAX2 peptides, second column) was 0.66.
`CC(C)C[C@H](NC(=O)[C@H](CCCNC(=N)N)NC(=O)[C@H](CCCNC(=N)N)NC(=O)[C@H](CC(N)=O)NC(=O)[C@H](Cc1c[nH]cn1)NC(=O)[C@H](CO)NC(=O)[C@H](CO)NC(=O)[C@@H](N)CCCCNS(=O)(=O)c1cccc2c(N(C)C)cccc12)C(=O)N[C@@H](CCCNC(=N)N)C(=O)N[C@H](C(=O)N[C@@H](CCCNC(=N)N)C(N)=O)[C@@H](C)O` [ZElan035] (H-K(Dansyl)SSHNRRLRTR-NH2) was tested, and the “Binding value at 20 μg/ml” value (PAX2 peptides, first column) was 0.12, the “Binding value at 20 μg/ml” value (PAX2 peptides, second column) was 0.43 and the “Binding value at 50 μg/ml” value (PAX2 peptides, first column) was 0.81. For the same compound, the “Binding value at 50 μg/ml” value (PAX2 peptides, second column) was 0.77.
With `C[C@H](NC(=O)[C@H](CC(N)=O)NC(=O)[C@@H](NC(=O)[C@@H](N)CCCCNS(=O)(=O)c1cccc2c(N(C)C)cccc12)[C@@H](C)O)C(=O)N[C@@H](CCCCN)C(=O)N[C@@H](Cc1c[nH]cn1)C(=O)N[C@@H](CO)C(=O)N[C@@H](CO)C(=O)N[C@@H](Cc1c[nH]cn1)C(=O)N[C@@H](CC(N)=O)C(N)=O` [ZElan055] (H-K(Dansyl)TNAKHSSHN-NH2) the “Binding value at 20 μg/ml” value (PAX2 peptides, first column) was 0.99, the “Binding value at 20 μg/ml” value (PAX2 peptides, second column) was 0.73 and the “Binding value at 50 μg/ml” value (PAX2 peptides, first column) was 1.10. For the same compound, the “Binding value at 50 μg/ml” value (PAX2 peptides, second column) was 0.59.
For `CC(C)C[C@H](NC(=O)[C@H](CCCNC(=N)N)NC(=O)[C@H](CCCNC(=N)N)NC(=O)[C@@H](N)CCCCNS(=O)(=O)c1cccc2c(N(C)C)cccc12)C(=O)N[C@@H](CCCNC(=N)N)C(=O)N[C@H](C(=O)N[C@@H](CCCNC(=N)N)C(=O)N[C@@H](CO)C(=O)N[C@@H](CCCNC(=N)N)C(=O)N1CCC[C@H]1C(=O)N[C@@H](CC(N)=O)C(N)=O)[C@@H](C)O` [ZElan056] (H-K(Dansyl)RRLRTRSRPN-NH2), the “Binding value at 20 μg/ml” value (PAX2 peptides, first column) was 0.00, the “Binding value at 20 μg/ml” value (PAX2 peptides, second column) was 0.16 and the “Binding value at 50 μg/ml” value (PAX2 peptides, first column) was 0.21. The “Binding value at 50 μg/ml” value (PAX2 peptides, second column) was 0.21.
In the case of `CC(C)C[C@H](NC(=O)[C@H](CCCNC(=N)N)NC(=O)[C@H](CCCNC(=N)N)NC(=O)[C@@H](N)CCCCNS(=O)(=O)c1cccc2c(N(C)C)cccc12)C(=O)N[C@@H](CCCNC(=N)N)C(=O)N[C@H](C(=O)N[C@@H](CCCNC(=N)N)C(=O)N[C@@H](CO)C(=O)N[C@@H](CCCNC(=N)N)C(N)=O)[C@@H](C)O` [ZElan057] (H-K(Dansyl)RRLRTRSR-NH2), the “Binding value at 20 μg/ml” value (PAX2 peptides, first column) was 0.08, the “Binding value at 50 μg/ml” value (PAX2 peptides, first column) was 0.56 and the “Binding value at 50 μg/ml” value (PAX2 peptides, second column) was 0.25.
For `CC(C)C[C@H](NC(=O)[C@H](CCCNC(=N)N)NC(=O)[C@H](CCCNC(=N)N)NC(=O)[C@@H](N)CCCCNS(=O)(=O)c1cccc2c(N(C)C)cccc12)C(=O)N[C@@H](CCCNC(=N)N)C(=O)N[C@H](C(=O)N[C@@H](CCCNC(=N)N)C(N)=O)[C@@H](C)O` [ZElan058, H2N-K(dns)RRLRTR-CONH2] (H-K(Dansyl)RRLRTR-NH2), the “Binding value at 20 μg/ml” value (PAX2 peptides, first column) was 0.05, the “Binding value at 50 μg/ml” value (PAX2 peptides, first column) was 0.47 and the “Binding value at 50 μg/ml” value (PAX2 peptides, second column) was 0.16.
With `CC[C@H](C)[C@H](NC(=O)[C@H](C)NC(=O)[C@H](CO)NC(=O)[C@@H]1CCCN1C(=O)[C@H](CCCNC(=N)N)NC(=O)[C@H](CCCNC(=N)N)NC(=O)[C@H](CCCNC(=N)N)NC(=O)[C@H](CC(N)=O)NC(=O)[C@H](Cc1ccccc1)NC(=O)[C@@H](NC(=O)[C@H](CCCCN)NC(=O)[C@H](CCCNC(=N)N)NC(=O)CNC(=O)[C@@H](NC(=O)[C@H](CO)NC(=O)[C@H](CC(N)=O)NC(=O)CNC(=O)[C@H](CC(N)=O)NC(=O)CNC(=O)[C@H](CS)NC(=O)[C@H](CS)NC(=O)[C@H](CC(N)=O)NC(=O)[C@H](Cc1ccc(O)cc1)NC(=O)[C@H](CC(=O)O)NC(=O)CNC(=O)[C@@H](N)CCCCNS(=O)(=O)c1cccc2c(N(C)C)cccc12)[C@@H](C)O)C(C)C)C(=O)N1CCC[C@H]1C(=O)N[C@H](C(N)=O)[C@@H](C)O` [ZElan061] (H-K(Dansyl)GDYNCCGNGNSTGRKVFNRRRPSAIPT-NH2) the “Binding value at 20 μg/ml” value (HAX42 peptides) was 0.20, the “Binding value at 50 μg/ml” value (HAX42 peptides, first column) was 0.60 and the “Binding value at 50 μg/ml” value (HAX42 peptides, second column) was 0.38.
`CC(C)C[C@H](NC(=O)[C@H](C)NC(=O)[C@H](Cc1c[nH]cn1)NC(=O)[C@H](CC(=O)O)NC(=O)[C@H](CO)NC(=O)[C@@H](N)CCCCNS(=O)(=O)c1cccc2c(N(C)C)cccc12)C(=O)NCC(=O)N[C@H](C(=O)N[C@@H](CC(N)=O)C(=O)N[C@@H](CC(C)C)C(=O)N[C@@H](CCCNC(=N)N)C(=O)N[C@@H](CO)C(=O)N[C@@H](CC(=O)O)C(=O)N[C@@H](CC(N)=O)C(=O)N[C@@H](C)C(=O)N[C@@H](CCCCN)C(=O)N[C@@H](CCC(=O)O)C(=O)N1CCC[C@H]1C(=O)NCC(N)=O)[C@@H](C)O` [ZElan062] (H-K(Dansyl)SDHALGTNLRSDNAKEPG-NH2) was tested, and the “Binding value at 20 μg/ml” value (HAX42 peptides) was 0.11, the “Binding value at 50 μg/ml” value (HAX42 peptides, first column) was 0.42 and the “Binding value at 50 μg/ml” value (HAX42 peptides, second column) was 0.34.
With `CC(C)[C@H](NC(=O)[C@H](CCCCN)NC(=O)[C@H](CCCNC(=N)N)NC(=O)[C@@H](N)CCCCNS(=O)(=O)c1cccc2c(N(C)C)cccc12)C(=O)N[C@@H](Cc1ccccc1)C(=O)N[C@@H](CC(N)=O)C(=O)N[C@@H](CCCNC(=N)N)C(=O)N[C@@H](CCCNC(=N)N)C(=O)N[C@@H](CCCNC(=N)N)C(=O)N1CCC[C@H]1C(=O)N[C@@H](CO)C(N)=O` [ZElan065] (H-K(Dansyl)RKVFNRRRPS-NH2) the “Binding value at 20 μg/ml” value (HAX42 peptides) was 0.00, the “Binding value at 50 μg/ml” value (HAX42 peptides, first column) was 0.54 and the “Binding value at 50 μg/ml” value (HAX42 peptides, second column) was 0.30.
For `CN(C)c1cccc2c(S(=O)(=O)NCCCC[C@H](N)C(=O)N[C@@H](CC(N)=O)C(=O)N[C@@H](CCCNC(=N)N)C(=O)N[C@@H](CCCNC(=N)N)C(=O)N[C@@H](CCCNC(=N)N)C(=O)N3CCC[C@H]3C(=O)N[C@@H](CO)C(N)=O)cccc12` [ZElan067, H2N-K(dns)NRRRPS-CONH2] (H-K(Dansyl)NRRRPS-NH2), the “Binding value at 20 μg/ml” value (HAX42 peptides) was 0.08, the “Binding value at 50 μg/ml” value (HAX42 peptides, first column) was 0.52 and the “Binding value at 50 μg/ml” value (HAX42 peptides, second column) was 0.40.

Reference: US7053177B1, “Random peptides that bind to gastro-intestinal tract (GIT) transport receptors and related methods” (Cytogen Corporation, priority 1997, dated 2006)
